Assay results reported in publication PMC2864270 (PLoS Neglected Tropical Diseases, 2010).
Where two headings read alike, the source gives them in different places.

How the values were obtained:
[1] = system: L. major promastigote; assay: Primary screening resazurin viability assay, L. major promastigotes; format: cell-based, Leishmania major; details: for Active compound selection in the 4,000-compound library screen: cut-off 70% proliferation inhibition at the lowest compound concentration (0.2–0.02 µM), duplicate, data not shown; for EC50: Leishmania major, promastigotes
Method: (§1) L. major MHOM/IL/81/FRIEDLIN and L. donovani MHOM/ET/67/HU3 promastigotes were cultivated at 28°C in axenic M199 culture medium (Welgene, S. Korea) supplemented with 10% heat-inactivated fetal bovine serum (FBS) (Gibco, United States) and 1% streptomycin/penicillin (Gibco, United States).
(§2) After compound addition to the assay plate (Evotec™ 384-well microplate, Germany), 20,000 L. major promastigote parasites from an exponential phase culture (∼10^7 parasites/mL) were diluted in M199, seeded in 50 µL per well using FlexDrop™ and incubated at 28°C for 28 hours, followed by the addition of 5 mM resazurin sodium salt (Sigma R7017, United States) and further incubation for 20 hours at 28°C. After a 48-hour exposure to compounds, the reference drug (EtBr) or control (1% DMSO), the parasites were fixed with 2% paraformaldehyde (PFA) and plates were read in Victor3™ (Perkin Elmer) at 530 nm (excitation) and 590 nm (emission). This fixation step is not necessary for resazurin readout, but allows flexibility in the automation schedule and increases assay robustness by decreasing metabolic variability between populations across wells and plates.
The effect of compounds on Leishmania viability was assessed by fluorometric measurement of resazurin reduction. […] Reference compounds for antileishmanial activity (EtBr, amphotericin B, miltefosine and paromomycin) were tested (Fig. 1B) as a step of the validation process. […] Assay validation was performed on three separate days using 33 microplates (384 wells/plate) containing only controls. […] After assay validation, we screened a 4,000-compound library containing a number of compounds with known pharmacological properties. […] This assay was done in duplicate and results of each concentration assay are represented as individual graphs in Fig. 1D.

[2] = system: L. donovani promastigote; assay: Resazurin viability assay, L. donovani promastigotes; format: cell-based; details: Leishmania donovani
Method: as §1
as §2, with “plates. Z-factor, calculated as 1−(3×σp+3×σn)/(|μp−μn|), where μp, σp, μn and σn are the means (μ) and standard deviations (σ) of both the positive (p) and negative (n) controls, and other parameters, including DRC plates for verification of the reference drug EC50 (accepted if within the range of 3× higher or lower than a defined value from the literature), coefficient of variation not higher than 10% in the controls and edge effect evaluation, were used for screening validation and hits selection.” for “plates.”
Infection of human macrophage cells in vitro with Leishmania has been previously described as a suitable model for screening and was adopted for our purpose. The 124 active compounds selected from the secondary assay were tested in 10-point dose response with 2-fold serial dilutions starting from 20 µM against promastigotes and intracellular amastigotes of L. major and L. donovani infecting macrophages. The average Z-factor calculated per plate based on the reference drug (amphotericin B) and carrier (1% DMSO) was 0.62 for L. major infection and 0.59 for L. donovani infection, and minimum accepted Z-factor for the analysis was 0.5.

[3] = system: L. donovani intracellular amastigotes; assay: Intracellular amastigotes assay, L. donovani infecting THP-1 macrophages (image-based infection ratio); format: cell-based; details: Leishmania donovani, 96 h, intracellular amastigotes infecting THP-1 macrophages, 4 days incubation, read-out: L. donovani EC50 amastigote
Method: (§3) THP-1 cells were cultivated in suspension at a density of 10^5 to 10^6 cells/mL in RPMI (Gibco 1640, United States) medium supplemented with 10% heat-inactivated FBS and 1% streptomycin/penicillin at 37°C and 5% CO2. The differentiation of THP-1 into macrophages was induced by incubation of the cells for 48 hours with phorbol 12-myristate 13-acetate (PMA) at 50 ng/ml. For infection, late-stage L. major or L. donovani rich in metacyclic promastigotes was added to differentiated THP-1 cells (ratio of 50 parasites to 1 host cell) in Evotec™ 384-well microplates using a FlexDrop™ (Perkin Elmer) to dispense 50 µL/well. Compounds were added 24 hours after infection and microplates were incubated at 37°C and 5% CO2 for 4 days. Amphotericin B as the reference compound (positive control) at 10 µM as the EC100 and 1% DMSO (negative control) were used in all the plates for data normalization (see bellow). […] Microplates were read in an Opera confocal microscope (Perkin Elmer), enabling the determination of the infection ratio of the parasites by image analysis. […] The macrophage nuclei and internalized parasites were identified and counted if localized in the foreground previously selected (Figure S1). With this technique, extracellular parasites were not considered in the calculations, and the infection ratio was determined by the number of infected cells divided by the total number of cells after normalization based on the controls. The average infection ratios from the positive and negative controls were normalized to 0% and 100% infection, and the infection ratio read from each compound activity was proportionally distributed within this range. […]
(§4) Infection of human macrophage cells in vitro with Leishmania has been previously described as a suitable model for screening and was adopted for our purpose. […] The average Z-factor calculated per plate based on the reference drug (amphotericin B) and carrier (1% DMSO) was 0.62 for L. major infection and 0.59 for L. donovani infection, and minimum accepted Z-factor for the analysis was 0.5.

[4] = system: L. major intracellular amastigotes; assay: Intracellular amastigotes assay, L. major infecting THP-1 macrophages (image-based infection ratio); format: cell-based; details: Leishmania major, 96 h, intracellular amastigotes infecting THP-1 macrophages, 4 days incubation, read-out: L. major EC50 amastigote
Method: as §3, §4

[5] = molecular target: CYP3A4 (Homo sapiens, UniProt P08684); assay: CYP450 inhibition assay, fluorescent probe BFC; format: in vitro ADME; details: for IC50: individual human P450s, eight-point curve
Method: (§5) Individual fluorescent probe substrates were used with individual rhCYP isozymes and fluorescence detection according to a previously published method. Probe substrates were 7-benzyloxy-4-(trifluoromethyl)-coumarin (BFC) for CYP3A4 and 3-[2-(N,N-diethyl-N-methylammonium)ethyl]-7-methoxy-4-methylcoumarin (AMMC) for CYP2D6 in 0.5% DMSO. IC50 was determined using an eight-point concentration curve with three-fold serial dilutions. Victor3™ (Perkin Elmer) was used for quantification in the fluorescent method (Perkin Elmer Life and Analytical Sciences).

[6] = Microsomal stability assay, human liver microsomes; format: in vitro ADME; details: 2 µM compound, 0.5 mg/mL microsomes; for parent compound remaining after 30 minutes, human liver microsomes: NADPH
Method: (§6) Compounds at a concentration of 2 µM in 0.2% DMSO were incubated with 0.5 mg/mL rat (Sprague-Dawley Rat, BD Gentest) and human (human pool donors, BD Gentest) liver microsomes in potassium phosphate buffer in a reaction started by the addition of NADPH and stopped either immediately or at 5, 10, 30, 60 or 120 minutes for a precise estimate of microsomal stability. The corresponding loss of the parent compound was determined by a quadrupole liquid chromatography-mass spectrometry (LC-MS) with diode-array detection (Agilent 1200, Agilent Technology). The samples were passed through trapping cartridges (Security Guard Cartridge, Gemini C18, 4×2.0 mm, 3 µm, Phenomenex) followed by an analytical column (Gemini C18, 50×2.0 mm, 3 µm, Phenomenex). Positive electrospray ionization (ESI+) was employed for this analysis. The mobile phases A (water with 0.1% formic acid) and B (acetonitrile with 0.1% formic acid) were used at a flow rate of 0.3 mL/min. Gradient elution started with 95% mobile phase A and 5% mobile phase B. Elution was changed to a linear gradient until 50% A and B for 1 min. This condition was held for 0.5 min, then increased to 95% B over 0.5 min, and held for 1.5 min. Then, the elution gradient returned to 95% A and 5% B over 0.5 min, was held for the remaining 3.5 min. The percentage of the remaining compound was calculated by comparison with the initial quantity at 0 min. Half-life was calculated based on first-order reaction kinetics.

[7] = molecular target: CYP2D6 (Homo sapiens, UniProt P10635); assay: CYP450 inhibition assay, fluorescent probe AMMC; format: in vitro ADME; details: for IC50: individual human P450s, eight-point curve
Method: as §5

[8] = Microsomal stability assay, rat liver microsomes; format: in vitro ADME, Sprague-Dawley Rat; details: 2 µM compound, 0.5 mg/mL microsomes; for half-life at 2 µM: Sprague-Dawley, rat, liver microsomes, first-order kinetics, read-out: theoretical half-life, rat liver microsomes
Method: as §6

[9] = Human cell toxicity test, resazurin viability; format: cell-based; details: THP-1 cells (non-differentiated); THP-1 human cell line; read-out: Cytotoxicity CC50 THP-1
Method: To assess the cytotoxicity of compounds on THP-1, an acute monocytic leukemia-derived human cell line (ATCC TIB-202™), a viability assay also using resazurin reduction with minor modifications in concentration and incubation time was performed. Z-factor [15] and other parameters were used for secondary screening validation and hit exclusion.
To exclude potentially toxic compounds from the active list, we performed a secondary viability screening using the non-differentiated human macrophage cell line THP-1. Compounds that interfered with THP-1 viability at a concentration of 10 µM or lower were discarded.

[10] = Fig. 1B, HTS format, promastigotes, read-out: EC50 of reference compound, L. donovani (grey dashed line)
[11] = Fig. 1B, HTS format, read-out: EC50 of reference compound, L. major (black line)
[12] = promastigotes, 10-point dose response, 2-fold dilutions from 20 µM, read-out: L. donovani EC50 promastigote
[13] = 10-point dose response, 2-fold dilutions from 20 µM, read-out: L. major EC50 promastigote

Chain of CYP3A4 (P08684 whole entry): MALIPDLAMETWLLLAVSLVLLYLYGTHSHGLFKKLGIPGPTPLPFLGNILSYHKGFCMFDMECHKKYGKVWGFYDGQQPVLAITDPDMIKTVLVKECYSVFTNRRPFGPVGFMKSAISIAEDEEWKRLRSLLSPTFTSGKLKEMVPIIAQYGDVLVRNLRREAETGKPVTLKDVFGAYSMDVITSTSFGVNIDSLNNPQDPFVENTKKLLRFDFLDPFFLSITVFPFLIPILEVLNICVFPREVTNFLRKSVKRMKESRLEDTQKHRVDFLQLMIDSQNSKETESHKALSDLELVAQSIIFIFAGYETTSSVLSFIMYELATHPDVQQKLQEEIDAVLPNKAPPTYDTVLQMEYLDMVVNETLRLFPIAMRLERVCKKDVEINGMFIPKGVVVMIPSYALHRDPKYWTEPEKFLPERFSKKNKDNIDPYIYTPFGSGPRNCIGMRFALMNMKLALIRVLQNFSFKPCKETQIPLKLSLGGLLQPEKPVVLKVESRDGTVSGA
Chain of CYP2D6 (P10635 whole entry): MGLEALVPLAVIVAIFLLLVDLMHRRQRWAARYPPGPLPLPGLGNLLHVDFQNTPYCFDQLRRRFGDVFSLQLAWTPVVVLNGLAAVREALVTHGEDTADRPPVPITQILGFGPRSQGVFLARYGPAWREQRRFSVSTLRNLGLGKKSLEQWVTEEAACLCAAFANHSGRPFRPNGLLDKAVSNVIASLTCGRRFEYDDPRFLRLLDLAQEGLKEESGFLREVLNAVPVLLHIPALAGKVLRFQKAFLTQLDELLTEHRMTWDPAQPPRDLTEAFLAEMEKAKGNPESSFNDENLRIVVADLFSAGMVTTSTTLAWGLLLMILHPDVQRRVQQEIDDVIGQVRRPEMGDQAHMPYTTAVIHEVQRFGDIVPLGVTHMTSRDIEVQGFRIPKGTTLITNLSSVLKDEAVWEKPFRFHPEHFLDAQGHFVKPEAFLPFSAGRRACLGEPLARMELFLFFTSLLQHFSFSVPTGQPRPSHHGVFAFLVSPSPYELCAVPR

O=C1OCCN1/N=C/c1ccc([N+](=O)[O-])o1 [furazolidone]
Active compound selection in the 4,000-compound library screen [1]: active

COc1ccc2cc3[n+](cc2c1OC)CCc1cc2c(cc1-3)OCO2 [berberine chloride]
Active compound selection in the 4,000-compound library screen [1]: active

C[C@@H]1[C@H](O)[C@@H](C)/C=C/C=C/C=C/C=C/C=C/C=C/C=C/[C@H](O[C@@H]2O[C@H](C)[C@@H](O)[C@H](N)[C@@H]2O)C[C@@H]2O[C@](O)(C[C@@H](O)C[C@@H](O)[C@H](O)CC[C@@H](O)C[C@@H](O)CC(=O)O[C@H]1C)C[C@H](O)[C@H]2C(=O)O [amphotericin B, reference compound]
EC50 [2, 10]: 1300 nM
EC50 [1, 11]: 3900 nM
EC50 [3]: 820 nM
EC50 [4]: 1060 nM

NC(=O)N/N=C/c1ccc([N+](=O)[O-])o1 [nitrofural]
Active compound selection in the 4,000-compound library screen [1]: active

N=C(N)c1ccc(OCCCCCOc2ccc(C(=N)N)cc2)cc1 [pentamidine isethionate]
Active compound selection in the 4,000-compound library screen [1]: active

COc1cc(/C=N/NC(=O)c2cccc(C)c2O)ccc1OCc1ccccc1 [CA272]
EC50 [5]: 3410 nM
IC50 [5]: 3410 nM
parent compound remaining after 30 minutes, human liver microsomes [6]: 77.8%
half-life at 2 µM ([6]; human, liver microsomes, first-order kinetics, read-out: theoretical half-life, human liver microsomes): 79.4 min
EC50 [2, 12]: 2700 nM
EC50 [1, 13]: 2700 nM
EC50 [3]: 19000 nM
EC50 [4]: 800 nM
EC50 [7]: > 10000 nM
IC50 [7]: > 10000 nM
parent compound remaining, rat liver microsomes ([8]; NADPH, 30 minutes): 53.3%
half-life at 2 µM [8]: 31.8 min
CC50 [9]: > 10000 nM

CC[n+]1c(-c2ccccc2)c2cc(N)ccc2c2ccc(N)cc21 [EtBr, Ethidium bromide]
EC50 ([2]; read-out: EC50 of reference compound, L. donovani (grey dashed line)): 5 nM
EC50 [1, 11]: 14 nM

NC[C@@H]1O[C@H](O[C@H]2[C@@H](O)[C@H](O[C@@H]3[C@@H](O)[C@H](N)C[C@H](N)[C@H]3O[C@H]3O[C@H](CO)[C@@H](O)[C@H](O)[C@H]3N)O[C@@H]2CO)[C@H](N)[C@@H](O)[C@@H]1O [paromomycin]
EC50 [2, 10]: 13000 nM
EC50 [1, 11]: 62500 nM

COc1ccc(C[C@H]2NC[C@H](O)[C@H]2OC(C)=O)cc1 [anisomycin]
Active compound selection in the 4,000-compound library screen [1]: active

CC1CS(=O)(=O)CCN1/N=C/c1ccc([N+](=O)[O-])o1 (stereo not shown) [nifurtimox]
Active compound selection in the 4,000-compound library screen [1]: active

C=C1C(=O)O[C@H]2[C@H]1CC/C(C)=C/CC[C@@]1(C)O[C@@H]21 [parthenolide]
Active compound selection in the 4,000-compound library screen [1]: active

CCCCCCCCCCCCCCCCOP(=O)([O-])OCC[N+](C)(C)C [miltefosine]
EC50 [2, 10]: 2700 nM
EC50 [1, 11]: 4700 nM

Cc1nc2c(Cl)cccc2c(O)c1CN1CCCCC1C (stereo not shown) [CH872]
EC50 [5]: > 10000 nM
IC50 [5]: > 10000 nM
parent compound remaining after 30 minutes, human liver microsomes [6]: 99.6%
theoretical half-life, human liver microsomes ([6]; first-order kinetics): long
EC50 [2, 12]: 50 nM
EC50 [1, 13]: 100 nM
EC50 [3]: 60 nM
EC50 [4]: 300 nM
EC50 [7]: > 10000 nM
IC50 [7]: > 10000 nM
time after which completely degraded, rat liver microsomes [8]: 25 min
half-life at 2 µM [8]: 4.1 min
CC50 [9]: > 10000 nM
